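Protocol summary: plate cells (96-well), add compound at 5 concentrations, incubate 48 h, interpolate endpoints linearly. GI50 marks 50% less growth. TGI is the concentration that stops growth completely.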
Columns and labels:
Assay in all cases: inhibition of tumour cell growth, NCI panel, 48 h
MOLT-4 leukemia = system: MOLT-4 leukemia
OVCAR-5 ovarian = system: OVCAR-5 ovarian
SNB-19 CNS = system: SNB-19 CNS
MDA-MB-231 breast = system: MDA-MB-231 breast
786-0 renal = system: 786-0 renal
A549 NSCLC = system: A549 NSCLC
HOP-62 NSCLC = system: HOP-62 NSCLC
RXF 393 renal = system: RXF 393 renal
K-562 leukemia = system: K-562 leukemia
SR leukemia = system: SR leukemia
NCI/ADR-RES ovarian = system: NCI/ADR-RES ovarian
NCI-H522 lung = system: NCI-H522 lung
UACC-257 melanoma = system: UACC-257 melanoma
SW-620 colon = system: SW-620 colon
SNB-75 CNS = system: SNB-75 CNS
HCT-15 colon = system: HCT-15 colon
BT-549 breast = system: BT-549 breast
HT29 colon = system: HT29 colon
SK-MEL-5 melanoma = system: SK-MEL-5 melanoma
OVCAR-8 ovarian = system: OVCAR-8 ovarian
SF-268 CNS = system: SF-268 CNS
KM12 colon = system: KM12 colon
SF-295 CNS = system: SF-295 CNS
DU-145 prostate = system: DU-145 prostate
LOX IMVI melanoma = system: LOX IMVI melanoma
UO-31 renal = system: UO-31 renal
A498 renal = system: A498 renal
EKVX NSCLC = system: EKVX NSCLC
RPMI-8226 leukemia = system: RPMI-8226 leukemia
CAKI-1 renal = system: CAKI-1 renal
NCI-H460 lung = system: NCI-H460 lung
CCRF-CEM leukemia = system: CCRF-CEM leukemia
ACHN renal = system: ACHN renal
HS 578T breast = system: HS 578T breast
NCI-H23 lung = system: NCI-H23 lung
IGROV1 ovarian = system: IGROV1 ovarian
T-47D breast = system: T-47D breast
TK-10 renal = system: TK-10 renal
SK-MEL-28 melanoma = system: SK-MEL-28 melanoma
OVCAR-3 ovarian = system: OVCAR-3 ovarian
SK-MEL-2 melanoma = system: SK-MEL-2 melanoma
U251 CNS = system: U251 CNS
HL-60(TB) leukemia = system: HL-60(TB) leukemia
NCI-H226 lung = system: NCI-H226 lung
M14 melanoma = system: M14 melanoma
SF-539 CNS = system: SF-539 CNS
SK-OV-3 ovarian = system: SK-OV-3 ovarian
HCC-2998 colon = system: HCC-2998 colon
HOP-92 NSCLC = system: HOP-92 NSCLC
HCT-116 colon = system: HCT-116 colon
SN12C renal = system: SN12C renal
UACC-62 melanoma = system: UACC-62 melanoma
MALME-3M melanoma = system: MALME-3M melanoma
MDA-MB-435 = system: MDA-MB-435
COLO 205 colon = system: COLO 205 colon
MCF7 breast = system: MCF7 breast
OVCAR-4 ovarian = system: OVCAR-4 ovarian
PC-3 prostate = system: PC-3 prostate

## CN(C)CCCOc1c2ccc(Cl)cc2nc2c1oc1ccc(Cl)cc12
MOLT-4 leukemia
  GI50: 1.23 µM
  TGI: 6.58 µM
OVCAR-5 ovarian
  GI50: 2.46 µM
  TGI: 6.76 µM
SNB-19 CNS
  GI50: 1.89 µM
  TGI: 6.61 µM
MDA-MB-231 breast
  GI50: 1.92 µM
  TGI: 6.5 µM
786-0 renal
  GI50: 4.12 µM
  TGI: 16.1 µM
A549 NSCLC
  GI50: 2.73 µM
  TGI: 11.8 µM
HOP-62 NSCLC
  GI50: 3.21 µM
  TGI: 22 µM
RXF 393 renal
  GI50: 1.8 µM
  TGI: 4.88 µM
K-562 leukemia
  GI50: 1.05 µM
  TGI: 5.07 µM
SR leukemia
  GI50: 1.18 µM
  TGI: 5.33 µM
NCI/ADR-RES ovarian
  GI50: 3.72 µM
  TGI: 17.7 µM
NCI-H522 lung
  GI50: 4.33 µM
  TGI: 23.5 µM
UACC-257 melanoma
  GI50: 3.71 µM
  TGI: 9.21 µM
SW-620 colon
  GI50: 0.9 µM
  TGI: 4.36 µM
SNB-75 CNS
  GI50: 1.41 µM
  TGI: 6.65 µM
HCT-15 colon
  GI50: 1.35 µM
  TGI: 5.41 µM
BT-549 breast
  GI50: 7.26 µM
  TGI: > 30.5 µM
HT29 colon
  GI50: 1.22 µM
  TGI: 5.15 µM
SK-MEL-5 melanoma
  GI50: 4.48 µM
  TGI: 8.96 µM
OVCAR-8 ovarian
  GI50: 1.49 µM
  TGI: 6.04 µM
SF-268 CNS
  GI50: 4.85 µM
  TGI: 21.8 µM
KM12 colon
  GI50: 2.22 µM
  TGI: 7.52 µM
SF-295 CNS
  GI50: 2.12 µM
  TGI: 6.44 µM
DU-145 prostate
  GI50: 4.21 µM
  TGI: 14.4 µM
LOX IMVI melanoma
  GI50: 0.857 µM
  TGI: 3.56 µM
UO-31 renal
  GI50: 1.35 µM
  TGI: 11.7 µM
A498 renal
  GI50: 6.44 µM
  TGI: 27.7 µM
EKVX NSCLC
  GI50: 2.46 µM
  TGI: 7.3 µM
RPMI-8226 leukemia
  GI50: 1.97 µM
CAKI-1 renal
  GI50: 1.39 µM
  TGI: 5.96 µM
NCI-H460 lung
  GI50: 1.08 µM
  TGI: 3.92 µM
CCRF-CEM leukemia
  GI50: 2.18 µM
  TGI: 14.1 µM
ACHN renal
  GI50: 2.51 µM
  TGI: 13.2 µM
HS 578T breast
  GI50: 1.98 µM
  TGI: 9.43 µM
NCI-H23 lung
  GI50: 3.43 µM
  TGI: 15.6 µM
IGROV1 ovarian
  GI50: 2.34 µM
  TGI: 12.5 µM
T-47D breast
  GI50: 12.7 µM
  TGI: > 59.1 µM
TK-10 renal
  GI50: 6.62 µM
  TGI: 21.1 µM
SK-MEL-28 melanoma
  GI50: 5.09 µM
  TGI: 9.67 µM
OVCAR-3 ovarian
  GI50: 2.43 µM
  TGI: 7.57 µM
SK-MEL-2 melanoma
  GI50: 4.66 µM
  TGI: 12.4 µM
U251 CNS
  GI50: 3.23 µM
  TGI: 12.9 µM
HL-60(TB) leukemia
  GI50: 2.95 µM
  TGI: 15.7 µM
NCI-H226 lung
  GI50: 1.99 µM
  TGI: 8.13 µM
M14 melanoma
  GI50: 3.15 µM
  TGI: 9.37 µM
SF-539 CNS
  GI50: 3.37 µM
  TGI: 13.8 µM
SK-OV-3 ovarian
  GI50: 3.79 µM
  TGI: 15 µM
HCC-2998 colon
  GI50: 4.18 µM
  TGI: 15.5 µM
HOP-92 NSCLC
  GI50: 1.08 µM
  TGI: 12.9 µM
HCT-116 colon
  GI50: 3.73 µM
  TGI: 23.6 µM
SN12C renal
  GI50: 1.46 µM
  TGI: 5.55 µM
UACC-62 melanoma
  GI50: 4.85 µM
  TGI: 10.1 µM
MALME-3M melanoma
  GI50: 3.24 µM
  TGI: 16.2 µM
MDA-MB-435
  GI50: 2.17 µM
  TGI: 6.39 µM
COLO 205 colon
  GI50: 1.33 µM
  TGI: 7.87 µM
MCF7 breast
  GI50: 1.24 µM
  TGI: 4.9 µM
OVCAR-4 ovarian
  GI50: 2.1 µM
  TGI: 6.4 µM
PC-3 prostate
  GI50: 1.69 µM
  TGI: 9.2 µM

From PubChem BioAssay (NCI)
